Test results from ChEMBL document CHEMBL3639333, “Compounds, pharmaceutical compositions and uses thereof” (2014).

Biological target: Acetyl-CoA carboxylase 2 (Homo sapiens, UniProt O00763)
Assay: Spectrophotometric 384 Well Assay: Malonyl CoA formation by acetyl CoA carboxylases is stoichometrically linked to the consumption of ATP. ACC2 activity is measured in a NADH-linked kinetic method measuring ADP generated during the ACC reaction using a coupled lactate dehydrogenase/pyruvate kinase reaction.For biological testing, a human ACC2 construct which lacks the 128 amino acids at the N-terminus for increased solubility (nt 385-6966 in Genbank entry AJ575592) is cloned. The protein is then expressed in insect cells using a baculoviral expression system. Protein purification is performed by anion exchange.All compounds are dissolved in dimethyl sulfoxide (DMSO) to a concentration of 10 mM.Assay reactions are then carried out in 384-well plates, with hACC2 in an appropriate dilution and at final assay concentrations (f.c.) of 100 mM Tris (pH 7.5), 10 mM trisodium citrate, 25 mM KHCO3, 10 mM MgCl2, 0.5 mg/mL BSA, 3.75 mM reduced L-glutathione, 15 U/mL lactate dehydrogenase, 0.5 mM phosphoenolpyruvate.

Sequence of Acetyl-CoA carboxylase 2 (O00763 whole entry): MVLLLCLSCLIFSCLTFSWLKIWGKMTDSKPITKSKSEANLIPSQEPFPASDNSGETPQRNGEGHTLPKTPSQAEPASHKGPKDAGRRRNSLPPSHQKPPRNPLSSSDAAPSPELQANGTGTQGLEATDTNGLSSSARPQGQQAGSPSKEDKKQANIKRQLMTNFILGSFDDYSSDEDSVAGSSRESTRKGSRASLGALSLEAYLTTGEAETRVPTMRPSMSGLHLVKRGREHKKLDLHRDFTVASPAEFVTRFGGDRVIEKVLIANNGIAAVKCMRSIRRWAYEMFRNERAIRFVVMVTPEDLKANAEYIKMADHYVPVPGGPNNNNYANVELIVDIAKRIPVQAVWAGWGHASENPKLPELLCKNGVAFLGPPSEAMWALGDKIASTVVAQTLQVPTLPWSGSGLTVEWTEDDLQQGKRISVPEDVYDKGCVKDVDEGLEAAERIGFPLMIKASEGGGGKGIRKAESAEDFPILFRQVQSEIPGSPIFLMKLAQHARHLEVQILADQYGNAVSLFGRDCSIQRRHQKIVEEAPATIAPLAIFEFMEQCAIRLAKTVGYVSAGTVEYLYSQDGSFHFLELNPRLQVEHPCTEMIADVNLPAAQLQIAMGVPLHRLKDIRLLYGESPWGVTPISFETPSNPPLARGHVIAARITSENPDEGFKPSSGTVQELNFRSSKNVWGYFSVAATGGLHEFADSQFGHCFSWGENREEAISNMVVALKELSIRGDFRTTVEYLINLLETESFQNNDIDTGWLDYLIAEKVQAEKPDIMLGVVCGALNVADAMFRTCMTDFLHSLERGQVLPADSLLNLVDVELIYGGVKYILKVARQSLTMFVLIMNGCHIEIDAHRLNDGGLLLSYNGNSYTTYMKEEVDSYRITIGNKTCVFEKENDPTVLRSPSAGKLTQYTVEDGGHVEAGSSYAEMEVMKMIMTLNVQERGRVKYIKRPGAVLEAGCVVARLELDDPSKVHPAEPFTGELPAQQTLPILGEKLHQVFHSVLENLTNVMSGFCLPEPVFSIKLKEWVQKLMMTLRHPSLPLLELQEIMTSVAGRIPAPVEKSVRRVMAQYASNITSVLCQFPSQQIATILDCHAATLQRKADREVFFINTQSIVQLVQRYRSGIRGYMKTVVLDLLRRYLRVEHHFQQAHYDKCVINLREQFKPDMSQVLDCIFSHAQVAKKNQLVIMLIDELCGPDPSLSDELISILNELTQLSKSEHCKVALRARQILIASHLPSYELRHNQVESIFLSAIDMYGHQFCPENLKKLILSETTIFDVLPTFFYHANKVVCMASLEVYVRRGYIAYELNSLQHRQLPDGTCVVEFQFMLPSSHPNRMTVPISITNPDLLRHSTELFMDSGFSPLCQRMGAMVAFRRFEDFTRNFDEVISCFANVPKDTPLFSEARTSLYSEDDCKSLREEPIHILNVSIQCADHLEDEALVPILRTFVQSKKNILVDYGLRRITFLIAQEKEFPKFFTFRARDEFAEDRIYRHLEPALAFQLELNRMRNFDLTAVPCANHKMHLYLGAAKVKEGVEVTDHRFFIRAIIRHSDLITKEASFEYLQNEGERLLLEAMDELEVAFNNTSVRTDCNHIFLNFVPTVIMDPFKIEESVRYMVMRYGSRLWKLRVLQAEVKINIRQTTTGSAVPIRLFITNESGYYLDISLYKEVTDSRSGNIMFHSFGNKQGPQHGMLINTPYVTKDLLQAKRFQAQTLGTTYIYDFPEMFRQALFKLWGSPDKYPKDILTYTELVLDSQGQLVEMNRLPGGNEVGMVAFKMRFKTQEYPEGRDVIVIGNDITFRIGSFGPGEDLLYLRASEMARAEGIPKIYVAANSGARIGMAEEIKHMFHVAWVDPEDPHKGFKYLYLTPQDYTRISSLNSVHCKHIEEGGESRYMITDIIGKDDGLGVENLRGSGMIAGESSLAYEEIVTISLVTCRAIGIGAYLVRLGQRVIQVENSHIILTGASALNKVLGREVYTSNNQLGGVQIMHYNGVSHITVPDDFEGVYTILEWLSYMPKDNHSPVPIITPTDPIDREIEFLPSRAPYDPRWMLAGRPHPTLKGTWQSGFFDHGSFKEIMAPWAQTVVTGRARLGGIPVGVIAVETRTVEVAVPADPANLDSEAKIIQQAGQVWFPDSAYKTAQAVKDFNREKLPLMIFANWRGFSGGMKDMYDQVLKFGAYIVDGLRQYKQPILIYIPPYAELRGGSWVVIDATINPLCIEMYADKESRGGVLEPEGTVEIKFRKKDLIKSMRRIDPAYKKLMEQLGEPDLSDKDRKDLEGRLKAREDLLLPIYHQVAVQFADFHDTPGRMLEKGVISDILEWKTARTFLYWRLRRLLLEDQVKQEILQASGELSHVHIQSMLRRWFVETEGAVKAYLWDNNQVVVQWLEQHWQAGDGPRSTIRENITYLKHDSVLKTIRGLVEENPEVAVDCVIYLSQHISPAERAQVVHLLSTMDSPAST

Row | IC50 | Structure (SMILES)
1 | 0.79 µM | CCOc1ccc(C#Cc2ccc(CC(C)NC(=O)CC3CC3)cc2)cc1 (centres undefined)
2 | 4.2 µM | CC(=O)NC(C)Cc1ccc(C#Cc2ccc(C(=O)NCC(C)C)cc2)cc1 (centres undefined)
3 | 2.1 µM | CC(=O)NC(C)Cc1ccc(C#Cc2cccc(C(=O)N3CCC3)c2)cc1 (centres undefined)
4 | 9.9 µM | CC(=O)NC(C)Cc1ccc(C#Cc2ccnc(NCC(F)F)n2)cc1 (centres undefined)
